Measured values as given in patent publication US20260224555A1, “NEW PHENYLQUINOLONE COMPOUND HAVING ANTIBACTERIAL AND ANTI-CANCER FUNCTIONS AND PREPARATION THEREOF” (AlphaMol Science Ltd (Shanghai), priority 2022, published 2026).

Tests used:
Assay in all cases: In vitro anticancer activity test (MTT cell proliferation)
Format in all cases: cell-based
[1] = tested on: human Burkitt's lymphoma cell Raji
Method: (§1) The anticancer activity of the compounds was tested using an in vitro cancer cell tests. The specific test method is as follows:
(§2) 1. Cell recovery and culture method: the cryovial was taken out from the liquid nitrogen container firstly, soaked directly in 37° C. warm water, and shaked from time to time to let it thaw as soon as possible. Then, the cryovial was transferred to a clean bench, and the lid was open. The cell suspension was taken into a centrifuge tube using a rubber-tipped dropper and more than 10 times the culture medium was added, mixed well, and centrifuged at 50 g for 5 minutes. Then, the supernatant was discarded, complete culture medium containing 10% fetal bovine serum was added to resuspend the cells, the cells was counted, the cell density was adjusted, and then inoculated into a culture bottle. The culture bottle was placed in a cell culture incubator at 5% CO2 and 37° C. The complete culture medium was replaced once the next day and the culture was continued.
(§3) 2. Cell passaging method: adherent cells in the logarithmic growth phase were placed in a clean bench, the original culture medium was discarded, and washed three times with 1×PBS. An appropriate amount of 0.25% trypsin digestion solution was added to moisten the cells, and then the trypsin solution was aspirated. The cells were placed in a cell culture incubator at 5% CO2 and 37° C. for digestion for a suitable time, and observed under a microscope. When 90% of the cells become round, the cells were moved immediately to the clean bench and complete culture medium was added to terminate digestion. Then, the cells were dislodged by pipetting up and down with a rubber-tipped dropper to single cells. The cells were counted, and the cell density was adjusted. The cells were inoculated into a suitable culture bottle or dish, added enough complete culture medium, and placed in a cell culture incubator at 5% CO2 and 37° C. for static culture.
(§4) For suspension cells in the logarithmic phase, the original culture medium was directly centrifuged at 50 g for 5 minutes, the supernatant was discarded, and the cells were washed once with PBS and centrifuged. After discarding the supernatant, the complete culture medium was added and the cells were dispersed using a rubber-tipped dropper. The cells are counted, and the cell density was adjusted. The cells were inoculated into appropriate culture bottles or culture dishes, and sufficient complete culture medium was added, and the cells were cultured in a cell culture incubator at 5% CO2 and 37° C.
(§5) 3. Cell proliferation assay: cells in good state in logarithmic phase were taken and appropriate amount of the cells was inoculated into 96-well plates according to the cell passage treatment method, with each well containing 180 μL complete medium. After the cells growth was recovered and the number of cells in each well is 5000±500, a drug was added for treatment.
(§6) After drug treatment during the experimental time, MTT solution with a final concentration of 0.5 mg/mL was added to each well, and placed in a cell culture incubator at 5% CO2 and 37° C. to allow a fully reaction of MTT with cells. After 4 hours, the solution in the 96-well plate was discarded, 100 µL of DMSO was added, and shaked to dissolve the formazan precipitated at the bottom of the plate, and the absorbance value of samples was detected at a wavelength of 570 nm using a microplate reader. Calculation method of cell viability rate: […]

[2] = tested on: human acute monocytic leukemia cell THP-1
Method: as §1, §2, §3, §4, §5, §6

[3] = tested on: human acute myeloid leukemia cell MOLM-13
Method: as §1, §2, §3, §4, §5, §6

[4] = tested on: human breast cancer cell MFM223; details: MFM-223
Method: as §1, §2, §3, §4, §5, §6

[5] = tested on: human colon cancer cell HCT 116
Method: as §1, §2, §3, §4, §5, §6

[6] = tested on: human gastric cancer cell MGC-803
Method: as §1, §2, §3, §4, §5, §6

human glioma cell SNB-19 = tested on: human glioma cell SNB-19
Method: as §1, §2, §3, §4, §5, §6

[7] = tested on: human liver cancer cell BLE-7402
Method: as §1, §2, §3, §4, §5, §6

[8] = tested on: human liver cancer cell HepG2
Method: as §1, §2, §3, §4, §5, §6

[9] = tested on: human malignant melanoma cell A375; details: A-375
Method: as §1, §2, §3, §4, §5, §6

[10] = tested on: human non-small cell lung cancer cell A549
Method: as §1, §2, §3, §4, §5, §6

[11] = tested on: human osteosarcoma cell U2-OS; details: U2OS
Method: as §1, §2, §3, §4, §5, §6

[12] = tested on: human prostate cancer cell PC-3
Method: as §1, §2, §3, §4, §5, §6

[13] = tested on: human renal cancer cell OS-RC-2
Method: as §1, §2, §3, §4, §5, §6

[14] = tested on: pancreatic cancer cell PNAC-1
Method: as §1, §2, §3, §4, §5, §6

[15] = tested on: human acute T-lymphoblastic leukemia cell Jurkat
Method: as §1, §2, §3, §4

[16] = tested on: human bladder transitional cell carcinoma cell T24; details: T-24
Method: as §1, §2, §3, §4

[17] = tested on: human breast cancer cell MCF-7; details: MCF7
Method: as §1, §2, §3, §4

[18] = tested on: human breast ductal carcinoma cell T-47D; details: T47D
Method: as §1, §2, §3, §4

[19] = tested on: human epidermal carcinoma cell A431; details: A-431
Method: as §1, §2, §3, §4

[20] = tested on: human ovarian adenocarcinoma cell SK-OV-3
Method: as §1, §2, §3, §4

Hela = details: Homo sapiens

IC50 [1]: 1 to 10 µM
IC50 [2]: 1 to 10 µM
IC50 [3]: 1 to 10 µM
IC50 [4]: 1 to 10 µM
IC50 [5]: 1 to 10 µM
IC50 [6]: 1 to 10 µM
IC50 (human glioma cell SNB-19): 1 to 10 µM
IC50 [7]: 1 to 10 µM
IC50 [8]: 1 to 10 µM
IC50 [9]: 1 to 10 µM
IC50 [10]: 1 to 10 µM
IC50 [11]: 1 to 10 µM
IC50 [12]: 1 to 10 µM
IC50 [13]: 1 to 10 µM
IC50 [14]: 1 to 10 µM
IC50 [15]: 1 to 10 µM
IC50 [16]: 1 to 10 µM
IC50 [17]: 1 to 10 µM
IC50 [18]: 1 to 10 µM
IC50 [19]: 1 to 10 µM
IC50 [20]: 1 to 10 µM
IC50 (Hela): 1 to 10 µM
SMILES: O=C(CCl)Nc1ncc(-c2cc3c(cc2F)c(=O)c(C(=O)O)cn3C2CC2)cc1F [Example 135]
